# Test results published in patent US4894453A, “2-substituted alkoxy-3-substituted-pyrazines” (Toyo Jozo Kabushiki Kaisha, priority 1986, dated 1990).
# Test system: lipoperoxide generation in rat cerebrum
# Experiment: Antioxidant activity (inhibition of lipoperoxide generation, method of Stocks et al.)
# Assay type: biochemical
# Conditions: 100 μM; rat cerebrum supernatant, 37° C., 15 min, thiobarbituric acid, 532 nm; hydrochloride salt
# Procedure: The pharmacological activity of the present compounds [1] is illustrated below. All the compounds [1] used in the pharmacological tests were tested in the form of the hydrochloride salt thereof.
# Antioxidant activity is determined according to the method of Stocks et al. [Clin. Sci. Mol. Med., 47: 215 (1974)]. Rat cerebrum is added to ice-cooled 40 mM phosphate saline buffer solution (PBS) (pH 7.4, 4 ml buffer per 1 g cerebrum), homogenized and centrifuged (1000×g, 4° C., 10 min.) to obtain a supernatant solution. The supernatant solution is diluted fivefold with the above ice-cooled PBS solution, and to a 0.9 ml aliquot thereof is added a sample containing a compound [1] (0.1 ml, final concentration 100 μM) dissolved in ethanol. The resultant mixture is incubated at 37° C. for 15 minutes, 35% perchloric acid (0.2 ml) is added, and the mixture is ice-cooled to stop the reaction and centrifuged (1300×g, 4° C., 10 min.). 0.5 ml thiobarbituric acid (5 g/lit. of 50% acetic acid) is added to the supernatant solution (1 ml), so as to measure its absorbancy at 532 nm. The amount of lipoperoxide thus generated is expressed as an amount of malondialdehyde.
row,Compound,"inhibition ratio, lipoperoxide generation (antioxidant activity) [%]"
1,CCc1nc(C)c(C)nc1OC(C(=O)NCCN1CCN(Cc2ccc(Cl)cc2Cl)CC1)c1ccccc1 (stereo not drawn) [Compound 345],54
2,O=C(COc1nc2c(nc1Cc1ccccc1)CCCC2)NCCN1CCN(c2ccc(Cl)cc2)CC1 [Compound 371],49
3,O=C(COc1nc2c(nc1Cc1ccccc1)CCCC2)NCCN1CCCN(Cc2ccc(F)cc2)CC1 [Compound 372],64
4,O=C(COc1nc2c(nc1Cc1ccccc1)CCCC2)NCCN1CCN(c2ccccc2)CC1 [Compound 373],49
5,CCc1nc(Cc2ccccc2)c(OCC(=O)NCCN2CCN(Cc3ccc(Cl)cc3)CC2)nc1CC [Compound 379],50
6,CCc1nc(Cc2ccccc2)c(OCC(=O)NCCN2CCCN(Cc3ccc(Cl)cc3)CC2)nc1CC [Compound 382],83
7,Cc1nc(Cc2ccccc2)c(OCCN2CCCN(Cc3ccc(Cl)cc3)CC2)nc1C [Compound 516],75
8,CCCCc1nc2c(nc1OCCN1CCCN(Cc3ccc(Cl)cc3)CC1)CCCC2 [Compound 520],83
9,CCCCCCc1nc2c(nc1OCCN1CCN(Cc3ccc(Cl)cc3)CC1)CCCC2 [Compound 568],61
10,CCCCCCc1nc2c(nc1OCCN1CCCN(Cc3ccc(F)cc3)CC1)CCCC2 [Compound 569],81
11,CCCCCCCCc1nc2c(nc1OCCN1CCN(Cc3ccccc3)CC1)CCCC2 [Compound 574],71
12,CCCCCCCCc1nc2c(nc1OCCN1CCN(Cc3ccc(Cl)cc3)CC1)CCCC2 [Compound 575],79
13,CCCCCCCCc1nc2c(nc1OCCN1CCCN(Cc3ccc(F)cc3)CC1)CCCC2 [Compound 576],85
14,CCCCCCCCc1nc2c(nc1OCCN1CCN(c3ccccc3)CC1)CCCC2 [Compound 577],71
15,CCCCCCCCc1nc2c(nc1OCCN1CCN(c3ccccc3OC)CC1)CCCC2 [Compound 578],88
16,CCCCCCCCCc1nc2c(nc1OCCN1CCN(Cc3ccccc3)CC1)CCCC2 [Compound 581],71
17,CCCCCCCCCc1nc2c(nc1OCCN1CCCN(Cc3ccc(Cl)cc3)CC1)CCCC2 [Compound 583],82
18,CCCCCCCCCCc1nc2c(nc1OCCN1CCCCC1)CCCC2 [Compound 586],68
19,CCCCCCCCCCc1nc2c(nc1OCCN1CCN(Cc3ccccc3)CC1)CCCC2 [Compound 589],74
20,CCCCCCCCCCc1nc2c(nc1OCCN1CCN(Cc3ccc(Cl)cc3)CC1)CCCC2 [Compound 590],74
21,CCCCCCCCCCc1nc2c(nc1OCCN1CCN(C(c3ccccc3)c3ccccc3)CC1)CCCC2 [Compound 591],59
22,CCCCCCCCCCc1nc2c(nc1OCCN1CCCN(Cc3ccc(F)cc3)CC1)CCCC2 [Compound 592],85
23,CCCCCCCCCCc1nc2c(nc1OCCN1CCN(c3ccc(OC)cc3)CC1)CCCC2 [Compound 593],73
24,CCCCCCCCCCCCc1nc2c(nc1OCCN1CCOCC1)CCCC2 [Compound 594],58
25,CCCCCCCCCCCCc1nc2c(nc1OCCN1CCN(Cc3ccccc3)CC1)CCCC2 [Compound 596],73
26,CCCCCCCCCCCCc1nc2c(nc1OCCN1CCN(Cc3ccc(OC)cc3)CC1)CCCC2 [Compound 597],76
27,CCCCCCCCCCCCc1nc2c(nc1OCCN1CCCN(Cc3ccc(F)cc3)CC1)CCCC2 [Compound 598],88
